Measured values: ChEMBL document CHEMBL6083193, “Advancing drug discovery: Thiadiazole derivatives as multifaceted agents in medicinal chemistry and pharmacology” (Bioorg Med Chem, 2024)
Values after ≈ are worked out from the molar mass of the structure shown.

Experiments:
Toxoplasma gondii = assay: Antiparasitic activity against Toxoplasma gondii RH infected in human HFF cells; type: functional, organism-based
Alpha glucosidase = Alpha glucosidase (Homo sapiens, UniProt O43451+P10253+P14410+Q2M2H8); assay: Inhibition of Alpha-glucosidase (unknown origin); type: protein assay
[1] = Inhibition of Alpha-amylase (unknown origin); set-up: species or system Homo sapiens
COLO 205 [2] = assay: Cytotoxicity against human COLO 205 cells assessed as reduction in cell viability by MTT assay; type: functional, cell-based
COLO 205 [3] = assay: Anticancer activity against human COLO 205 cells by MTT assay; type: functional, cell-based
MCF7 [4] = assay: Anticancer activity against human MCF7 cells by MTT assay; type: functional, cell-based
A2780 [5] = assay: Cytotoxicity against human A2780 cells assessed as reduction in cell viability by MTT assay; type: functional, cell-based
A2780 [6] = assay: Anticancer activity against human A2780 cells by MTT assay; type: functional, cell-based
A549 [7] = assay: Cytotoxicity against human A549 cells assessed as reduction in cell viability by MTT assay; type: functional, cell-based
MCF7 [8] = assay: Cytotoxicity against human MCF7 cells assessed as reduction in cell viability by MTT assay; type: functional, cell-based
A549 [9] = assay: Anticancer activity against human A549 cells by MTT assay; type: functional, cell-based
[10] = Antioxidant activity assessed as DPPH radical scavenging activity measured for 30 mins by spectrophotometric analysis; type: functional
A549 [11] = assay: Cytotoxicity against human A549 cells assessed as reduction in cell growth; type: functional, cell-based
Mus musculus = assay: Antiinflammatory activity against carrageenan-induced paw edema in Swiss mouse assessed as reduction in paw edema at 15 mg/kg, po relative to control; type: functional; set-up: scale not given: the % may be the effect or the level left
[12] = Inhibition of alpha amylase (unknown origin) using starch as substrate pre-incubated for 30 mins followed by substrate addition and measured after 30 mins by absorbance based analysis; set-up: species or system Homo sapiens

Cc1[nH]cnc1-c1nnc(Nc2ccc(Cl)cc2)s1
IC50 (Toxoplasma gondii): 4.7 µg/mL (≈ 16.1 µM)

Cc1[nH]cnc1-c1nnc(Nc2ccc(F)cc2)s1
IC50 (Toxoplasma gondii): 4.7 µg/mL (≈ 17.1 µM)

Cc1cccc(CN2C(=O)/C(=N\Nc3nncs3)c3ccccc32)c1
IC50 (Alpha glucosidase): < 500000 nM
IC50 [1]: 2590 nM

Cc1nc[nH]c1-c1nnc(Nc2ccccc2Cl)s1
IC50 (Toxoplasma gondii): 4.7 µg/mL (≈ 16.1 µM)

O=[N+]([O-])c1ccc(NC(=S)Nc2nsc(Nc3cccc([N+](=O)[O-])c3)n2)cc1
IC50 (Alpha glucosidase): 2200 nM
IC50 [1]: 1300 nM

O=[N+]([O-])c1ccccc1NC(=S)Nc1nsc(Nc2ccc(Cl)c(Cl)c2)n1
IC50 (Alpha glucosidase): 2200 nM
IC50 [1]: 1300 nM

COc1ccc(NC(=O)c2ccc(-c3nsc(-c4csc(-c5ccncc5)n4)n3)cc2)cc1
IC50 (COLO 205 [2]): 120 nM
IC50 (COLO 205 [3]): 110 nM
IC50 (MCF7 [4]): 110 nM
IC50 (A2780 [5]): 140 nM
IC50 (A2780 [6]): 110 nM
IC50 (A549 [7]): 110 nM
IC50 (MCF7 [8]): 340 nM
IC50 (A549 [9]): 110 nM

S=C(Nc1ccc(Cl)c(Cl)c1)Nc1nsc(Nc2ccc(Cl)c(Cl)c2)n1
IC50 (Alpha glucosidase): 2200 nM
IC50 [1]: 1300 nM

Fc1ccccc1NC(=S)Nc1nsc(Nc2ccc(Cl)c(Cl)c2)n1
IC50 (Alpha glucosidase): 2200 nM
IC50 [1]: 1300 nM

N#C/C(=N\Nc1ccccc1)C(=O)Nc1nncs1
IC50 [10]: 37.25 µg/mL (≈ 137 µM)

CCNc1nnc(SCC(=O)N2N=C(c3ccccc3)CC2c2ccc([N+](=O)[O-])cc2)s1 (configuration not stated)
IC50 (A549 [11]): 10000 nM

Cc1nc[nH]c1-c1nnc(Nc2ccc(I)cc2)s1
IC50 (Toxoplasma gondii): 4.7 µg/mL (≈ 12.3 µM)

Cc1nc[nH]c1-c1nnc(Nc2cccc(Br)c2)s1
IC50 (Toxoplasma gondii): 4.7 µg/mL (≈ 14 µM)

Cc1ccc(NC(=S)Nc2nsc(Nc3ccc(Cl)cc3)n2)cc1
IC50 (Alpha glucosidase): 2200 nM
IC50 [1]: 1300 nM

CCc1ccc(C2SCC(=O)N2c2nnc(-c3ccccc3)s2)cc1 (configuration not stated)
IC50 (Alpha glucosidase): < 500000 nM
IC50 [1]: 3870 nM

COc1cc(NC(=O)c2ccc(-c3nsc(-c4csc(-c5ccncc5)n4)n3)cc2)cc(OC)c1OC
IC50 (COLO 205 [2]): 120 nM
IC50 (COLO 205 [3]): 110 nM
IC50 (MCF7 [4]): 110 nM
IC50 (A2780 [5]): 140 nM
IC50 (A2780 [6]): 110 nM
IC50 (A549 [7]): 110 nM
IC50 (MCF7 [8]): 340 nM
IC50 (A549 [9]): 110 nM

Cc1nc[nH]c1-c1nnc(Nc2ccccc2I)s1
IC50 (Toxoplasma gondii): 4.7 µg/mL (≈ 12.3 µM)

O=[N+]([O-])c1ccc(NC(=S)Nc2nsc(Nc3ccc(Cl)cc3)n2)cc1
IC50 (Alpha glucosidase): 2200 nM
IC50 [1]: 1300 nM

O=C1N/C(=N\c2nnc(C34CC5CC(CC(C5)C3)C4)s2)S/C1=C\c1cccc([N+](=O)[O-])c1
Activity (Mus musculus): 66.7%

O=[N+]([O-])c1cccc(NC(=S)Nc2nsc(Nc3cccc([N+](=O)[O-])c3)n2)c1
IC50 (Alpha glucosidase): 2200 nM
IC50 [1]: 1300 nM

O=C1N/C(=N\c2nnc(C34CC5CC(CC(C5)C3)C4)s2)S/C1=C\c1cccc(Cl)c1Cl
Activity (Mus musculus): 66.7%

O=[N+]([O-])c1cccc(NC(=S)Nc2nsc(Nc3ccc(F)cc3)n2)c1
IC50 (Alpha glucosidase): 2200 nM
IC50 [1]: 1300 nM

O=C(NC1=NN2C(=O)/C(=C/C3CCCO3)N=C2S1)c1cccs1 (configuration not stated)
IC50 [12]: 36100 nM

O=C(Nc1cc([N+](=O)[O-])cc([N+](=O)[O-])c1)c1ccc(-c2nsc(-c3csc(-c4ccncc4)n3)n2)cc1
IC50 (COLO 205 [3]): 110 nM
IC50 (MCF7 [4]): 110 nM
IC50 (A2780 [6]): 110 nM
IC50 (A549 [9]): 110 nM

Cc1ccc(NC(=O)c2ccc(-c3nsc(-c4csc(-c5ccncc5)n4)n3)cc2)cc1
IC50 (COLO 205 [2]): 120 nM
IC50 (COLO 205 [3]): 110 nM
IC50 (MCF7 [4]): 110 nM
IC50 (A2780 [5]): 140 nM
IC50 (A2780 [6]): 110 nM
IC50 (A549 [7]): 110 nM
IC50 (MCF7 [8]): 340 nM
IC50 (A549 [9]): 110 nM

CCCNc1nnc(SCC(=O)N2N=C(c3ccccc3)CC2c2ccc([N+](=O)[O-])cc2)s1 (configuration not stated)
IC50 (A549 [11]): 10000 nM

O=C1N/C(=N/c2nn(-c3ccccc3)nc2C(=O)Nc2nncs2)S/C1=C\c1ccc(Cl)cc1
IC50 [10]: 22.63 µg/mL (≈ 44.5 µM)

COc1ccc(Nc2nnc(SCC(=O)N3N=C(c4ccccc4)CC3c3ccc([N+](=O)[O-])cc3)s2)cc1 (configuration not stated)
IC50 (A549 [11]): 10000 nM

COc1ccccc1NC(=S)Nc1nsc(Nc2ccc(Cl)c(Cl)c2)n1
IC50 (Alpha glucosidase): 2200 nM
IC50 [1]: 1300 nM

O=C1N/C(=N\c2nnc(C34CC5CC(CC(C5)C3)C4)s2)S/C1=C\c1ccccc1
Activity (Mus musculus): 66.7%

Cc1nc[nH]c1-c1nnc(Nc2ccc(Br)cc2)s1
IC50 (Toxoplasma gondii): 4.7 µg/mL (≈ 14 µM)

COc1cc(NC(=O)c2ccc(-c3nsc(-c4csc(-c5ccncc5)n4)n3)cc2)cc(OC)c1
IC50 (COLO 205 [2]): 120 nM
IC50 (COLO 205 [3]): 110 nM
IC50 (MCF7 [4]): 110 nM
IC50 (A2780 [5]): 140 nM
IC50 (A2780 [6]): 110 nM
IC50 (A549 [7]): 110 nM
IC50 (MCF7 [8]): 340 nM
IC50 (A549 [9]): 110 nM

CN(C)c1ccc(/C=C2\S/C(=N/c3nnc(C45CC6CC(CC(C6)C4)C5)s3)NC2=O)cc1
Activity (Mus musculus): 66.7%

FC(F)(F)c1cccc(Nc2nc(NC(=S)Nc3ccc(Cl)cc3)ns2)c1
IC50 (Alpha glucosidase): 2200 nM
IC50 [1]: 1300 nM

COc1ccc(/C=C2\S/C(=N/c3nnc(C45CC6CC(CC(C6)C4)C5)s3)NC2=O)cc1
Activity (Mus musculus): 66.7%

Cc1cc(C)cc(NC(=O)c2ccc(-c3nsc(-c4csc(-c5ccncc5)n4)n3)cc2)c1
IC50 (COLO 205 [3]): 110 nM
IC50 (MCF7 [4]): 110 nM
IC50 (A2780 [6]): 110 nM
IC50 (A549 [9]): 110 nM
